According to patent publication US7303866B2, “Methods of identifying an agent that modulates an interaction between 53BP1 and histone H3, and uses thereof” (priority 2004, dated 2007):
Where a SMILES comes first, the peptide text is derived from it. Where no end group is shown, it is not given here. [ ]: non-standard residue; d: D form. Lys(Me2) = CN(C)CCCC[C@H](N)C(=O)O; d = 2'-deoxy (DNA); r = 2'-OH (RNA)

Experiments:
[1] = target: T1, GST-53BP1 fusion protein containing 53BP1 residues 1480-1626 (Homo sapiens, UniProt Q12888); assay: Competition of binding of GST-53BP1 to histone H3 by histone H3 peptides (pull-down, immunoblot); details: 5 or 25 μg peptide; histones prepared from 293T cells; bound histone H3 detected by immunoblotting
T1 construct: a GST-53BP1 fusion protein containing 53BP1 residues 1480-1626 to histones prepared from 293T cells
Source text: FIG. 3 Binding of the tandem tudor domain of 53BP1 to histone H3 methylated on Lys79. a, GST-53BP1 fusion proteins containing residues 1157-1634 or 1480-1626 of human 53BP1 or plain GST protein were examined for binding to calf thymus histones (ct) or recombinant histones H3 and H4 (r). The proteins were resolved by SDS-PAGE and stained with Coomassie Brilliant Blue. The labels for H3, H2A, H2B and H4 refer to the input histones (Inp. Hist.). b, Identification of 53BP1-bound histones as full-length and N-terminally-cleaved histone H3. Input and GST-53BP1-bound histones were stained with Coomassie Brilliant Blue (C.B.) or immunoblotted (IB) with an antibody that recognizes the C-terminus (C-ter) of histone H3. c, Enrichment for methylation of Lys79 in histone H3 bound to GST-53BP1 as compared to input histone H3. Bound full-length histone H3 (aa 1-135), bound cleaved histone H3 (aa 28-135) and full-length histone H3 from the input fraction were analyzed by tandem mass spectrometry (MS/MS). For each sample, the identified peptides that include Lys79 are shown. K, K# and K## represent non-, mono- and di-methylated lysine, respectively. TIC, total ion current (an indicator of peptide abundance); dM, absolute difference of the experimental and theoretical masses; xCorr, cross correlation value of the experimental MS/MS spectrum versus the theoretical; Ions, number of matched ions in the experimental MS/MS spectrum versus the total number of theoretically possible ions. d, Competition of binding of 53BP1 to histone H3 by methylated histone H3 peptides. Binding of a GST-53BP1 fusion protein containing 53BP1 residues 1480-1626 to histones prepared from 293T cells was performed in the presence of no competitor peptide (−) or 5 or 25 μg histone H3 peptides. Bound histone H3 was detected by immunoblotting. Peptides spanning residues 74-83 of histone H3 had either non- (nm), mono- (mm) or di-methylated (dm) Lys79 (K79); peptides spanning residues 23-34 and 23-32 of histone H3 had dimethylated Lys27 (K27) and Arg26 (R26), respectively. e, Binding of a GST fusion protein containing S. cerevisiae Rad9 residues 750-917 to histone H3. Binding was examined as in a. f, Amino acid substitutions that disrupt recruitment of 53BP1 to sites of DNA DSBs also disrupt binding to histone H3. Binding was examined as in a. g, Crosslinking of ectopically-expressed His-tagged GFP-53BP1 to endogenous histone H3 in irradiated U2OS cells. Non-transfected U2OS cells (−) or cells transfected with His-tagged GFP-53BP1 fusion proteins having wild-type (wt) or mutant (Asp1521Arg, D1521R) 53BP1 were crosslinked with formaldehyde (fr) or were mock-crosslinked (m). Triton-X100 insoluble material (TrIM) from these cells was incubated with nickel-coated beads. Histone H3 in the TrIM and nickel bead-bound (NiBB) fractions was detected by immunoblotting after the crosslinks were reversed.
Glutathione S-transferase (GST) proteins (5 μg) fused to residues 1157-1634 or 1480-1626 of human 53BP1 or 750-917 of S. cerevisiae Rad9 were bound to glutathione beads (Pharmacia). The beads were then incubated for 1 h at 4° C. with histones in buffer containing 25 mM BTP [pH 6.8], 1 M KCl, and 0.5% Triton X-100. After 6 washes the bound material was resolved on SDS-polyacrylamide gels and either stained with Coomassie Brilliant Blue or immunoblotted with an antibody that recognizes the C-terminus of histone H3 (AbCam). […]

[2] = target: 53BP1 tandem tudor domain (Homo sapiens, UniProt Q12888); assay: Isothermal titration calorimetry; type: binding; details: data not shown; read-out: dissociation constant
human Dot1L = target: T2, human Dot1L (Homo sapiens, UniProt Q8TEK3); assay: Suppression of histone H3 methylation on Lys79 by siRNA (immunoblot); type: cell-based; details: U2OS cells, dot1L siRNA transfection (up to 3 rounds)
T2 construct: U2OS cells were transfected with control siRNA (luciferase; Dharmacon) or siRNA directed against human dot1L; endogenous in cells; host or cells: U2OS osteosarcoma cells

U2OS cells = assay: 53BP1 IR-induced foci in irradiated U2OS cells after siRNA (immunofluorescence); type: cell-based, human; details: 9 Gy IR, 15 min later
Protocol: FIG. 4 Histone H3 methylated on Lys79 and changes in higher order chromatin structure recruit 53BP1 to sites of DNA DSBs and chromatin. a, Suppression of histone H3 methylation on Lys79 inhibits recruitment of 53BP1 to sites of DNA DSBs. The percentage of irradiated (9 Gy) U2OS cells without (w/o) 53BP1 foci was determined from 4 independent experiments of control (ctl) siRNA-treated cells or cells transfected once (1) or 3 consecutive times (3) with dot1L-specific siRNA. Bars indicate standard errors. […] Histones prepared from non-irradiated or irradiated (9 Gy) 293T cells were resolved by SDS-PAGE and stained with Coomassie Brilliant Blue (C.B.; top panel) or immunoblotted with antibodies that recognize the C-terminus (C-ter) of histone H3, histone H3 dimethylated on Lys79 (K79dm), histone H2AX and phosphorylated histone H2AX (γ-H2AX; middle panel). […] Bound histone H3 was detected by immunoblotting (IB; lower panel). c, Exposure of cells to hypotonic media slows the nuclear diffusion of 53BP1. […] To show differences in GFP-53BP1 fluorescence before and after bleaching, the post-bleach image was pseudocolored magenta and merged with the pre-bleach image (Diff. image). […]
3 days after the last siRNA transfection, the cells were exposed to 9 Gy IR and 53BP1 intracellular localization was monitored by immunofluorescence 15 min later^5.

T1 sequence (Q12888 1480-1626): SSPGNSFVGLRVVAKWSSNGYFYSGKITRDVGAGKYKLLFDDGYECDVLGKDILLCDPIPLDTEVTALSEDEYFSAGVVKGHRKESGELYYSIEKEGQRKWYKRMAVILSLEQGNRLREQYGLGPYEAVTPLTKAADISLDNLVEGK
53BP1 tandem tudor domain, sequence (Q12888 1484-1603 limits assumed): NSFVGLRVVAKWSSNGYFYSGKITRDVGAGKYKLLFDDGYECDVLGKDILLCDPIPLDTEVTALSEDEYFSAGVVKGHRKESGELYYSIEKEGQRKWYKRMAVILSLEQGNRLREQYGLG
T2 sequence (Q8TEK3 whole entry): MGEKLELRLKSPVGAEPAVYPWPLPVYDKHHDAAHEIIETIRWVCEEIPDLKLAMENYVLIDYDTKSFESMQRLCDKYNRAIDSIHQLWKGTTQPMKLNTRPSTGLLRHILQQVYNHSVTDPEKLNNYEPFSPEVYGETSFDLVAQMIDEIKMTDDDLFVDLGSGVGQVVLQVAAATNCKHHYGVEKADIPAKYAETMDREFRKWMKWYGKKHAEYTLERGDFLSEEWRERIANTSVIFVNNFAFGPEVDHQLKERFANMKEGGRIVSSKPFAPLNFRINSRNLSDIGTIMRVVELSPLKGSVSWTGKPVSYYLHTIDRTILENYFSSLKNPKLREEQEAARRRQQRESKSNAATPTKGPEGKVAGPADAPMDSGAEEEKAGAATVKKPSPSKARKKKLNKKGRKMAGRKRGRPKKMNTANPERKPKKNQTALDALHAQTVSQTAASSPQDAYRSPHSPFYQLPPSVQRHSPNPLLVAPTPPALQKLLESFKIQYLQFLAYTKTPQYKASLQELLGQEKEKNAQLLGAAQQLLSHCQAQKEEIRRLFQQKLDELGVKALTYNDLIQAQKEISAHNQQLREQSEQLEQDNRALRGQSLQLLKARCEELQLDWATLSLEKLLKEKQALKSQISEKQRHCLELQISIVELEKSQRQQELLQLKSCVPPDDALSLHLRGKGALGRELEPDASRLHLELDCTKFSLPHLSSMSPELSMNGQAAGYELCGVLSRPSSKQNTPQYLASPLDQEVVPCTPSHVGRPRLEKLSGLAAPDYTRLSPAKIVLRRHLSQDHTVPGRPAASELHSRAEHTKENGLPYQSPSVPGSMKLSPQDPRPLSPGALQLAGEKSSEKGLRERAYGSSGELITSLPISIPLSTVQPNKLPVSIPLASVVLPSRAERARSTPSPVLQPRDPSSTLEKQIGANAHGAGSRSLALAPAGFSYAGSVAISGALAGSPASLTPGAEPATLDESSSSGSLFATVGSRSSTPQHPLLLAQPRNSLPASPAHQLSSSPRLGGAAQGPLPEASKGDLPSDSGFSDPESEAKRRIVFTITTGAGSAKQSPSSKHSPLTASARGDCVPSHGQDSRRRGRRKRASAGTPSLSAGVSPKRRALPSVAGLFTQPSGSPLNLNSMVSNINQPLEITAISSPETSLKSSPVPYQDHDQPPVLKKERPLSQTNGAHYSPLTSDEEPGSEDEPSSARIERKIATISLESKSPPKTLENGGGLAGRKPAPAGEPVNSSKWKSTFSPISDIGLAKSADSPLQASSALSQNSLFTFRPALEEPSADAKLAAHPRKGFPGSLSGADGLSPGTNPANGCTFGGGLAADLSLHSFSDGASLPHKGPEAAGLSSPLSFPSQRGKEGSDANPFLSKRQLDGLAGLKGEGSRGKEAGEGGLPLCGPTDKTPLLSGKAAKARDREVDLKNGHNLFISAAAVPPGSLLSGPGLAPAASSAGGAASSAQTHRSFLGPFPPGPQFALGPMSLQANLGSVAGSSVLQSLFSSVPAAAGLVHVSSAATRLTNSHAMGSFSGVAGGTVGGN

Compound: CC[C@H](C)[C@H](N)C(=O)N[C@@H](C)C(=O)N[C@@H](CCC(N)=O)C(=O)N[C@@H](CC(=O)O)C(=O)N[C@@H](Cc1ccccc1)C(=O)N[C@@H](CCCCN(C)C)C(=O)N[C@H](C(=O)N[C@@H](CC(=O)O)C(=O)N[C@@H](CC(C)C)C(=O)N[C@@H](CCCNC(=N)N)C(=O)O)[C@@H](C)O (H-IAQDF[Lys(Me2)]TDLR-OH; N-terminus and C-terminus assumed)
- competition for binding of histone H3 to 53BP1 [1]: competed for binding of histone H3 to 53BP1
- Kd [2]: < 1 µM

Compound: GCUCGCUAUGGAGAAUUACdTdT (guide GCUCGCUAUGGAGAAUUACTT; siRNA; sugars from the 5' end r19 d2, backbone not given here) [siRNA specific for human Dot1L, siRNA directed against human dot1L]
- methylation of histone H3 on Lys79 (human Dot1L): suppressed
- recruitment of 53BP1 to sites of DNA DSBs (U2OS cells): suppressed

Compound: corresponding non-methylated peptide: peptide spanning residues 74-83 of histone H3 with non-methylated Lys79 (IAQDFKTDLR)
- competition for binding of histone H3 to 53BP1 [1]: did not compete

Compound: monomethylated Lys79 peptide: peptide spanning residues 74-83 of histone H3 with mono-methylated Lys79 (IAQDFK(Me)TDLR)
- competition for binding of histone H3 to 53BP1 [1]: competed with lower efficiency

Compound: peptide with dimethylated Arg26: peptide spanning residues 23-32 of histone H3 with dimethylated Arg26 (KAARKSAPAT; dimethylated Arg26; UniProt P68431 24-33, looked up, fragment)
- competition for binding of histone H3 to 53BP1 [1]: competed with lower efficiency

Compound: peptide with dimethylated Lys27: peptide spanning residues 23-34 of histone H3 with dimethylated Lys27 (KAARKSAPATGG; Lys27 dimethylated; UniProt P68431 24-35, looked up, fragment)
- competition for binding of histone H3 to 53BP1 [1]: competed with lower efficiency
